Source: publication PMC11963983 (2025)

Test system: ΔSite1-PK-riboCdA (RNA, riboswitch) GGGAAGACAAACAUGCCGAAUCCGAAAGGUACCGAGGAACCGCUUUUUGGCGCUAAUCUGCUGUGAAGCAGCAGUAGGGAUACCUUCUGUCCCGCGCGCGACAGCUAACUCGGGAGGGCAUAAAGGAAGGAGAUUUGCAGUG
Experiment: smFRET, high-FRET
Conditions: 50 mM Na+, 0.75 mM Mg2+; 10 mM Tris-HCl pH 8.0, room temperature

`Nc1ncnc2c1ncn2[C@@H]1O[C@@H]2COP(=O)(O)O[C@H]3[C@@H](O)[C@H](n4cnc5c(N)ncnc54)O[C@@H]3COP(=O)(O)O[C@H]2[C@H]1O` was tested, and the EC50 was ~ 78.9 μM.
